Results taken from patent US20260078158A1, “COMPOSITIONS COMPRISING CXCL10-DERIVED PEPTIDES AND METHODS OF USE THEREOF” (priority 2022, published 2026).
Where “and” joins values, the source holds several entries; their conditions need not be identical. Identical values can stand only once. Like-named read-outs stand apart in the source and are kept apart here.

Experiments:
[1] = test system: Streptococcus pneumoniae; assay: microbe, parasite or virus in culture; assay type: cell-based; conditions: acetate formulation, in µg/mL
[2] = test system: Escherichia coli; assay: microbe, parasite or virus in culture; assay type: cell-based; conditions: acetate formulation
[3] = test system: Staphylococcus aureus; assay: microbe, parasite or virus in culture; assay type: cell-based; conditions: acetate formulation, in µg/mL
[4] = test system: Klebsiella pneumoniae; parameters: MIC: unit not given beside the values; conditions: strain ATCC 43816, sponsor, acetate formulation
[5] = test system: E. cloacae species complex; assay: microbe, parasite or virus in culture; assay type: cell-based, Enterobacter cloacae; conditions: acetate formulation
[6] = test system: Enterococcus faecalis; assay: microbe, parasite or virus in culture; assay type: cell-based; conditions: acetate formulation, in µg/mL
[7] = test system: Pseudomonas aeruginosa; assay: microbe, parasite or virus in culture; assay type: cell-based; conditions: acetate formulation, in µg/mL
[8] = test system: Acinetobacter baumannii-calcoaceticus complex; assay: microbe, parasite or virus in culture; assay type: cell-based; conditions: acetate formulation
[9] = test system: Enterococcus faecium; assay: microbe, parasite or virus in culture; assay type: cell-based; conditions: acetate formulation

Sequence: RYVRCRCI [Peptide P194]
- MIC ([1]; strain 1200385, PEN-S, replicate R1): 32
- MIC ([1]; strain 1200385, PEN-S, replicate R2): 32
- MIC ([1]; strain 1219456, PEN-R, replicate R1): 32
- MIC ([1]; strain 1219456, PEN-R, replicate R2): 32
- MIC ([1]; strain 1219876, PEN-R, replicate R1): 32
- MIC ([1]; strain 1219876, PEN-R, replicate R2): 32
- MIC ([1]; strain 1223661, PEN-R, replicate R1): 32
- MIC ([1]; strain 1223661, PEN-R, replicate R2): 32
- MIC ([1]; strain 1227224, PEN-S, replicate R1): 16
- MIC ([1]; strain 1227224, PEN-S, replicate R2): 32
- MIC ([1]; strain ATCC 49619, QC, replicate R1): 16
- MIC ([1]; strain ATCC 49619, QC, replicate R2): 16
- MIC ([2]; strain 1191008, MDR, ESBL, replicate R1): 8 µg/mL
- MIC ([2]; strain 1191008, MDR, ESBL, replicate R2): 8 µg/mL
- MIC ([2]; strain 1231795, MDR, ESBL, replicate R1): 8 µg/mL
- MIC ([2]; strain 1231795, MDR, ESBL, replicate R2): 8 µg/mL
- MIC ([2]; strain 1232428, MDR (COL-R), ESBL, replicate R1): 16 µg/mL
- MIC ([2]; strain 1232428, MDR (COL-R), ESBL, replicate R2): 8 µg/mL
- MIC ([2]; strain 1248389, ESBL, replicate R1): 8 µg/mL
- MIC ([2]; strain 1248389, ESBL, replicate R2): 8 µg/mL
- MIC ([2]; strain ATCC 25922, QC, replicate R1): 8 (3×) and 4
- MIC ([2]; strain ATCC 25922, QC, replicate R2): 4 and 8 (2×)
- MIC ([2]; strain ATCC BAA-2452, NDM-1, replicate R1): 8 µg/mL
- MIC ([2]; strain ATCC BAA-2452, NDM-1, replicate R2): 4 µg/mL
- MIC ([3]; strain 1124691, MRSA (USA300)/MDR, replicate R1): 32
- MIC ([3]; strain 1182822, replicate R2): 32
- MIC ([3]; strain 1189667, MRSA/MDR, replicate R1): 32
- MIC ([3]; strain 1189667, MRSA/MDR, replicate R2): 16
- MIC ([3]; strain 1189809, MRSA/MDR, replicate R1): 32
- MIC ([3]; strain 1189809, MRSA/MDR, replicate R2): 32
- MIC ([3]; strain 1190388, MRSA, replicate R1): 32
- MIC ([3]; strain 1190388, MRSA, replicate R2): 16
- MIC ([3]; strain 1221979, MRSA, replicate R1): 32
- MIC ([3]; strain 1221979, MRSA, replicate R2): 32
- MIC ([3]; strain ATCC 29213, QC, replicate R1): 32
- MIC ([3]; strain ATCC 29213, QC, replicate R2): 32
- MIC ([4]; replicate R1): 8 (3×) and 4
- MIC ([4]; replicate R2): 8 and 4 (2×)
- MIC ([5]; Enterobacter cloacae strain 1230117, non-MDR, replicate R1): 8 µg/mL
- MIC ([5]; Enterobacter cloacae strain 1230117, non-MDR, replicate R2): 8 µg/mL
- MIC ([5]; strain 1197959, non-MDR, replicate R1): 16 µg/mL
- MIC ([5]; strain 1197959, non-MDR, replicate R2): 16 µg/mL
- MIC ([5]; strain 1204419, non-MDR, replicate R1): 16 µg/mL
- MIC ([5]; strain 1204419, non-MDR, replicate R2): 16 µg/mL
- MIC ([5]; strain 1230601, non-MDR, replicate R1): 16 µg/mL
- MIC ([5]; strain 1230601, non-MDR, replicate R2): 8 µg/mL
- MIC ([5]; strain 1232701, MDR, replicate R1): 16 µg/mL
- MIC ([5]; strain 1232701, MDR, replicate R2): 16 µg/mL
- MIC ([6]; strain 1204777, VRE, replicate R1): 4
- MIC ([6]; strain 1204777, VRE, replicate R2): 2
- MIC ([6]; strain 1211589, VRE, replicate R1): 4
- MIC ([6]; strain 1211589, VRE, replicate R2): 2
- MIC ([6]; strain ATCC 29212, QC, replicate R1): 4
- MIC ([6]; strain ATCC 29212, QC, replicate R2): 4
- MIC ([7]; strain 1190985, non-MDR, replicate R1): 32
- MIC ([7]; strain 1190985, non-MDR, replicate R2): 32
- MIC ([7]; strain 1202638, MDR, replicate R1): 32
- MIC ([7]; strain 1202638, MDR, replicate R2): 32
- MIC ([7]; strain 1210081, non-MDR, replicate R1): 32
- MIC ([7]; strain 1210081, non-MDR, replicate R2): 32
- MIC ([7]; strain 1242554, non-MDR, replicate R1): 32
- MIC ([7]; strain 1242554, non-MDR, replicate R2): 16
- MIC ([7]; strain 1263496, MDR, replicate R1): 16
- MIC ([7]; strain 1263496, MDR, replicate R2): 8
- MIC ([7]; strain ATCC 27853, QC, replicate R1): 16
- MIC ([7]; strain ATCC 27853, QC, replicate R2): 8
- MIC ([8]; strain 1204424, non-MDR, replicate R1): 8 µg/mL
- MIC ([8]; strain 1204424, non-MDR, replicate R2): 8 µg/mL
- MIC ([8]; strain 1208060, non-MDR, replicate R1): 8 µg/mL
- MIC ([8]; strain 1208060, non-MDR, replicate R2): 4 µg/mL
- MIC ([8]; strain 1215088, MDR, replicate R1): 8 µg/mL
- MIC ([8]; strain 1215088, MDR, replicate R2): 4 µg/mL
- MIC ([8]; strain 1215098, MDR, replicate R1): 16 µg/mL
- MIC ([8]; strain 1215098, MDR, replicate R2): 8 µg/mL
- MIC ([8]; strain 1216520, non-MDR, replicate R1): 8 µg/mL
- MIC ([8]; strain 1216520, non-MDR, replicate R2): 4 µg/mL
- MIC ([9]; strain 1196024, VRE, replicate R1): 2 µg/mL
- MIC ([9]; strain 1196024, VRE, replicate R2): 2 µg/mL
- MIC ([9]; strain 1208412, VRE, replicate R1): 2 µg/mL
- MIC ([9]; strain 1208412, VRE, replicate R2): 1 µg/mL
- MIC ([9]; strain 1222807, VSE, replicate R1): 2 µg/mL
- MIC ([9]; strain 1222807, VSE, replicate R2): 1 µg/mL
